Laboratory results: US11072619B2, “Pyrazole[1,5-a] pyrimidine derivatives as kinase JAK inhibitors” (CELON PHARMA S.A., priority 2017, dated 2021)

Legend:
[1] = target: Recombinant kinase JAK3 (Homo sapiens (Human), UniProt P52333); experiment: In vitro JAK kinase inhibition assay (ADP-Glo), JAK3; format: biochemical; details: 30 μM ATP, peptide IGF-1Rtide, averaged
Procedure: (§1) In Vitro JAK Kinase Inhibition Assay
(§2) The effects of the compounds of the invention were analysed in vitro using kinase JAK inhibition assay described below.
(§3) Tested compounds were dissolved in 100% DMSO, and obtained stock solutions were serially diluted in the reaction buffer (50 mM Tris pH 7.5, 10 mM MgCl2, 0.25 mM EGTA, 0.1 mM Na3VO4, 0.01% Triton X-100, 2.5 mM DTT). Recombinant kinases JAK1 (ProQinase), JAK2, or JAK3 (Carna Biosciences) were diluted in the dilution buffer (50 mM Tris-HCl pH 7.5, 150 mM NaCl, 10% glycerol, 0.05% Triton X-100, 1 mM DTT) to the final concentration 3 ng/μL (JAK1), 0.1 ng/μL (JAK2), or 0.2 ng/μL (JAK3). 5 μL of obtained solution of the compounds and 5 μL of the solution of respective kinases were added to the well of a 96-well plate. To initiate interaction between tested compounds and an enzyme, the plate was incubated for 10 minutes at 25° C. in a Plate-Thermo-Shaker with orbital stirring at 400 rpm. Wells of a negative control contained all reagents as mentioned above with the exception of tested compounds and kinase, and wells of a positive controls contained all reagents as mentioned above with the exception of tested compounds. Enzymatic reaction was initiated by the addition of 15 μL of the following solution: 5× concentrated reaction buffer (50 mM Tris pH 7.5, 10 mM MgCl2, 0.25 mM EGTA, 0.1 mM Na3VO4, 0.01% Triton X-100, 2.5 mM DTT), water, 30 μM ATP and for particular kinases: JAK1—60 μM peptide IRS-1 (Enzo), JAK2 or JAK3—10 μM peptide IGF-1Rtide (Lipopharm). Then the plate was incubated for 1 hour at 25° C. in a Plate-Thermo-Shaker, with orbital stirring at 400 rpm. Detection of ADP formed in the enzymatic reaction was then performed using ADP-Glo Kinase Assay kit (Promega). For this purpose, to the well of the 96-well plate 25 μL of ADP-Glo Reagent were added, and the plate was incubated for 40 minutes at 25° C. in a Plate-Thermo-Shaker with orbital stirring at 400 rpm. Then to the well of the 96-well plate 50 μL of Kinase Detection Reagent were added and the plate was incubated for 30 minutes at 25° C. in a Plate-Thermo-Shaker with orbital stirring at 400 rpm. After incubation, luminescence intensity was measured using Victor×Light luminometer (Perkin Elmer, Inc.).
(§4) On the basis of luminescence measurement in wells containing tested compounds at various concentrations and in control wells, IC50 values were determined. These values were determined with Graph Pad software v. 5.03, by fitting points of the curve using non-linear regression method. Each compound was tested in at least 6 repetitions (6 wells) on two 96-well plates, using at least 3 wells of each control.
Averaged results of kinases JAK inhibition activity for selected compounds of the present invention are presented below in Table 1.

[2] = test system: TF-1 cells; experiment: TF-1 cells viability in vitro in the presence of IL-4 (JAK1/JAK3 activation); format: cell-based; details: for IC50: Homo sapiens, TF-1, 20 ng/mL IL-4, 72 hours, ATPlite, read-out: JAK1,3 IL4 (EC50, inhibition of viability of TF-1 cells); for JAK2/JAK1,3 Ratio: ratio of TF-1 viability EC50 with IL3 to EC50 with IL4
Procedure: Assay for TF-1 Cells Viability In Vitro
The effects of the activity of the compounds of the invention were tested in vitro using cells viability assay described below.
Tested compounds were dissolved in 100% DMSO, and obtained stock solutions were serially diluted in OptiMEM medium (Reduced Serum Medium-Thermo Fisher Scientific). TF-1 cells (DSMZ no.: ACC 334) in culture medium (80% RPMI 1640+20% FBS) ad in the presence of 5 ng/mL IL-3 or 20 ng/mL IL-4 were deposited on 96-well plates in the volume of 90 μl per well, 10 thousands of cells per well. To a well of the 96-well plate 10 μL of the prepared 10× stock solutions of the compounds. Cells on 96-well plates were incubated with the compounds for 72 hours at 37° C., 5% CO2. Subsequently, viability of the cells was measured using ATPlite kit (Perkin Elmer). For this purpose, 50 μL of lysis buffer (mammalian cell lysis solution) were added to a well of the 96-well plate and the plate was incubated for 10 minutes at 25° C. in a plate thermo-shaker with orbital stirring at 600 rpm. Then to a well of the 96-well plate 50 μL of substrate (substrate solution) were added and incubated for 15 minutes at in dark, in a plate thermo-shaker with orbital stirring at 600 rpm. After incubation time, luminescence intensity in a well was measured using Victor×Light luminometer (Perkin Elmer, Inc.).
as §4, with “luminescence intensity measurements” for “luminescence measurement”, “in well” for “in wells”, “control wells EC50” for “control wells, IC50”

[3] = target: Recombinant kinase JAK2 (Homo sapiens (Human), UniProt O60674); experiment: In vitro JAK kinase inhibition assay (ADP-Glo), JAK2; format: biochemical; details: 30 μM ATP, peptide IGF-1Rtide, averaged
Procedure: as §1, §2
as §3, with “Enzymatic reaction was initiated by the addition of 15 μL of the following solution: 5× concentrated reaction buffer (50 mM Tris pH 7.5, 10 mM MgCl2, 0.25 mM EGTA, 0.1 mM Na3VO4, 0.01% Triton X-100, 2.5 mM DTT), water, 30 μM ATP and for particular kinases: JAK1—60 μM peptide IRS-1 (Enzo), JAK2 or JAK3—10 μM peptide IGF-1Rtide (Lipopharm).” left out
as §4

Recombinant kinase JAK3, sequence (P52333 whole entry): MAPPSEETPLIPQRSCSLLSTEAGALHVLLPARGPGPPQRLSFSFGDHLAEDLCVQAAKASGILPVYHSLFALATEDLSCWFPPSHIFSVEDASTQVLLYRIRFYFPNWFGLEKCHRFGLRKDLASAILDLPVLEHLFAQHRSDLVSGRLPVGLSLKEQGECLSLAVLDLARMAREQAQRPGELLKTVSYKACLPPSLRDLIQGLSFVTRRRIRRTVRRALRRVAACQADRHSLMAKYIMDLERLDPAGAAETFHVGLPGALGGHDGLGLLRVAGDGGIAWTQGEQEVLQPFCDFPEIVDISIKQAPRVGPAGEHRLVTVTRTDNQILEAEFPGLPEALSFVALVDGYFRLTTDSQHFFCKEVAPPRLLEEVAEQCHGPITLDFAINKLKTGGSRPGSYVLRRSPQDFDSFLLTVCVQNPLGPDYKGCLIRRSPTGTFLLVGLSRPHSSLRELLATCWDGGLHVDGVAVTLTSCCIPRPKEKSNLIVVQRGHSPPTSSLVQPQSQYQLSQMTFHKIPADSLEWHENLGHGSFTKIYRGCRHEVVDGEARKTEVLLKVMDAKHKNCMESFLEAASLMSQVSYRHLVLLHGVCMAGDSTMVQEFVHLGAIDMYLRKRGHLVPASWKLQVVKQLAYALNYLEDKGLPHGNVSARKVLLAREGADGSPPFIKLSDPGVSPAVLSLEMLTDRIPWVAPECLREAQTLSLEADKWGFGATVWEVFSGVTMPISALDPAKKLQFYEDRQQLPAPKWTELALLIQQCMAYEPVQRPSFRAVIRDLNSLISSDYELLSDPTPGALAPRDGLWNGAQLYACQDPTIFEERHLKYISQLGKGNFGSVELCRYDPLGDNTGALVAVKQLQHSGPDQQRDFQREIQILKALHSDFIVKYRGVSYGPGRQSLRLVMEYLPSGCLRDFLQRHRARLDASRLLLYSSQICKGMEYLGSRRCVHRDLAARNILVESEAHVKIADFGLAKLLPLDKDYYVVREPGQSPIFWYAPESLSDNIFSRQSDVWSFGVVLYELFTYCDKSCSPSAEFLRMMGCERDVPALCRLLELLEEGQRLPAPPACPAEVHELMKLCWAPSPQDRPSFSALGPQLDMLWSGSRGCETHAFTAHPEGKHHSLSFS
Recombinant kinase JAK2, sequence (O60674 whole entry): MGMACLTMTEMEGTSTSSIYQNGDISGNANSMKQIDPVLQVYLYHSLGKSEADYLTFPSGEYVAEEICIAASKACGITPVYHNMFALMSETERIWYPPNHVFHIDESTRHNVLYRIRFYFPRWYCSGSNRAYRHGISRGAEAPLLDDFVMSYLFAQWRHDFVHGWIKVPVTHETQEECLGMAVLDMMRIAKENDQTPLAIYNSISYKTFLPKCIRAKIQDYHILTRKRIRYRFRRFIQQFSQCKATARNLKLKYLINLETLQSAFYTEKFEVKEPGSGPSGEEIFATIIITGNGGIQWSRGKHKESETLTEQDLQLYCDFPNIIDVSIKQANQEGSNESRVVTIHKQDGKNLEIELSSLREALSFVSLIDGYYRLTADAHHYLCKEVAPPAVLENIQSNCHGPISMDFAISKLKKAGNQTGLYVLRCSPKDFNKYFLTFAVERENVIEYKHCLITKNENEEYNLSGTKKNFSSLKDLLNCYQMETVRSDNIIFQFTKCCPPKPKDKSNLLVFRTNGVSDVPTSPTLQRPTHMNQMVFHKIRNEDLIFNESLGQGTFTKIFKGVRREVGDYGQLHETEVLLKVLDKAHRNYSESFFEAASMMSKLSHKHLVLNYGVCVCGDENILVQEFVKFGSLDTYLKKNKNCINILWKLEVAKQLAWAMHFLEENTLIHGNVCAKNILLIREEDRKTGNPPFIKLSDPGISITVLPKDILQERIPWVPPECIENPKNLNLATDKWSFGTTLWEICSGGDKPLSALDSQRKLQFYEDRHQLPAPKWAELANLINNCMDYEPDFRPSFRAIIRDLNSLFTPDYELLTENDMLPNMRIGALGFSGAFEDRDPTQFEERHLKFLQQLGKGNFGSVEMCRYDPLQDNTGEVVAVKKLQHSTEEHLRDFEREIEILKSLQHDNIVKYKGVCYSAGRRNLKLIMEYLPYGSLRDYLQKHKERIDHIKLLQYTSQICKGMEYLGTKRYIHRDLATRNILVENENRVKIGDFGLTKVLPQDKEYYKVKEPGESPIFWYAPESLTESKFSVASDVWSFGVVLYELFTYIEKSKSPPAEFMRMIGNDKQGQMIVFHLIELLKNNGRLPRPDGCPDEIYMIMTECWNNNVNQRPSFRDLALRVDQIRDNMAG

IC50 [1]	IC50 [3]	Compound	IC50 [2]	JAK2/JAK1,3 Ratio [2]
2.67 nM	27.7 nM	COc1ccc(-c2cc3ncc(C(N)=O)c(N[C@@H]4CCN(c5ccc(C#N)nn5)CC4(C)C)n3n2)cn1 [Example 4, (R)-7-((1-(6-Cyanopyridazin-3-yl)-3,3-dimethylpiperidin-4-yl)amino)-2-(6-methoxy-pyridin-3-yl)pyrazolo[1,5-a]pyrimidine-6-carboxamide]	69 nM	10.3
0.19 nM	3.4 nM	CC1(C)CN(c2ccc(C#N)nn2)CC[C@H]1Nc1c(C(N)=O)cnc2cc(-c3ccc(N4CCOCC4)nc3)nn12 [Example 7, (R)-7-((1-(6-Cyanopyridazin-3-yl)-3,3-dimethylpiperidin-4-yl)amino)-2-(6-morpholinopyridin-3-yl)pyrazolo[1,5-a]pyrimidine-6-carboxamide]	36.1 nM	7.8
0.03 nM	1.18 nM	COc1cccc(-c2cc3ncc(C(N)=O)c(N[C@@H]4CCN(c5ccc(C#N)nn5)CC4(C)C)n3n2)n1 [Example 11, (R)-7-((1-(6-Cyanopyridazin-3-yl)-3,3-dimethylpiperidin-4-yl)amino)-2-(6-methoxy-pyridin-2-yl)pyrazolo[1,5-a]pyrimidine-6-carboxamide]	61.1 nM	7.4
0.29 nM	5.05 nM	Cc1cc(-c2cc3ncc(C(N)=O)c(N[C@@H]4CCN(c5ccc(C#N)nn5)CC4(C)C)n3n2)ccn1 [Example 12, (R)-7-((1-(6-Cyanopyridazin-3-yl)-3,3-dimethylpiperidin-4-yl)amino)-2-(2-methyl-pyridin-4-yl)pyrazolo[1,5-a]pyrimidine-6-carboxamide]	31.1 nM	11.6
